These results are taken from patent US10351501B2, “Gem difluorocompounds as depigmenting or lightening agents” (TFCHEM, priority 2015, dated 2019).

The nature of series [1]: In vitro stability: hydroquinone released in various chemical conditions (HPLC-UV/DAD). In kind it is physicochemical. On the procedure: The stability of compound 11 was evaluated by the released of hydroquinone, which is a potentially toxic compound, in different chemical conditions (extreme conditions, simulating the application of these molecules on the skin) and it was compared to the deoxyarbutin.
This study involved different tests as degradation test and chemical stability (various chemical solutions, pH and temperatures).
Analytical Method (HPLC-UV/DAD Method)
Column Atlantis dC18 150 mm*4.6 mm*3 μm Waters, 30° C. Injection 50 μl, 25° C. λ: 220 nm, 265 nm, 285 nm. A-Acetonitrile B-Water; 0.8 ml/min; elution gradient: […]
This analytical method gave linear response for compound 11, Deoxyarbutin and Hydroquinone from 25 ng/mL to 1000 ng/mL. Dilution of samples had to be taken into account for each stability study to calculate the LLOQ of each compound.
The tested compounds are incubated in different solutions, at different times (see table 1). Then the analytical method was used to quantify remaining compounds and potential hydroquinone released (as possible degradation of compounds).
Hydroquinone (HQ) apparition is expressed as a percentage of initial compound 11 or Deoxyarbutin. The calculation was done in molar units and the limit of quantification fluctuates with the initial concentration.

Series [2] can be described thus: In vitro human skin absorption, Franz diffusion cell: quantification in the receptor fluid (flux). In kind it is in vitro ADME. The note with it: 200 μl at 2 mg/ml in water on human skin explant; receptor fluid T0 h to T24 h. From the text:
The aim of this study was to evaluate the absorption of compound 11 applied to excised human skin.
In vitro method using a Franz diffusion cell allows measuring the diffusion of chemicals into and across skin.
The tested compound is applied to the surface of a human skin explant separating the two chambers of a Franz diffusion cell. The compound remains on the skin for a specified time under specified conditions. The receptor fluid is sampled at time points throughout the experiment and analyzed for the tested compound. The skin may also be fractioned for separate analysis in epidermis or dermis layers.
The transcutaneous absorption was measured on human skin collected from the abdominoplasty of a single donor. At reception, the skin was defatted and cut in several fragments in order to perform Franz experiment. […]
The tested compounds were quantified, at T0 h and T24 h in the receptor solution bathing the inner surface of the skin (determination of flux), or at T24 h in the fractionated skin extracts (epidermis or dermis). […]
Sampling: 500 μL from the receptor fluid were removed at T0 h (replaced by Ringer solution) and at T24 h. These samples were analyzed by LC-MS/MS method for quantification of compound 11 and deoxyarbutin (results not shown). The quantity measured allowed to calculate a flux and to compare the absorption profile across the skin of compound 11 and deoxyarbutin.

The target of series [3] is T1, human recombinant tyrosinase (Homo sapiens, UniProt P14679).
T1 sequence (P14679 19-529): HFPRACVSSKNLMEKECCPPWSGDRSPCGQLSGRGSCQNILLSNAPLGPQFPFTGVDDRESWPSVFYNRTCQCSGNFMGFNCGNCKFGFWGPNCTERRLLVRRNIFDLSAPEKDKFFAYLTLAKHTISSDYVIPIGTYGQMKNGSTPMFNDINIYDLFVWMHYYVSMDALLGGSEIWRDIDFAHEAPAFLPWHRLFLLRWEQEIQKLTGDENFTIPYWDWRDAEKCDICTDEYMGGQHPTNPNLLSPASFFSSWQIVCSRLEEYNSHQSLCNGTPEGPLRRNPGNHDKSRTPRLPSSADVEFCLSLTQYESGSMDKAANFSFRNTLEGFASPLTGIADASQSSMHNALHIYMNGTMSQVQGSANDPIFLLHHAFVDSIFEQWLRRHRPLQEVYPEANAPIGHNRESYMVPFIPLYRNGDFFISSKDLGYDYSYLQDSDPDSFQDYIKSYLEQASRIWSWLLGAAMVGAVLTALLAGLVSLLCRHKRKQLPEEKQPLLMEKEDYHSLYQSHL
Briefly: Inhibition of human tyrosinase in tubo (L-DOPA substrate, OD at 477 nm), IC50. The note with it: Tyrosinase Concentration 300 U/mL. In kind it is biochemical. On the procedure: Substrate solution: L-DOPA (1 mg/mL) Solution B (L-DOPA 20 mg/Purified water up to 20 mL)
Preparation of Test Solutions (for IC50 Test—Examples for Deoxyarbutin)
Inhibitors solutions deoxyarbutin (1 mg/mL): Deoxyarbutin 20 mg in purified water up to 20 mL
This assay used a 96-well plate. Test solutions and controls were made several times.
The results were calculated from the OD measured at time point 20 min.
The determination of half maximal inhibitory concentration (IC50) was performed using the following formula.

A short description of series [4]: Antioxidant activity by the spectrophotometric method of the free radical DPPH•. The note with it: molar ratio antioxidant/DPPH•; absorbance at T = 30 min. From the text:
The aim of the study was to evaluate the antioxidant activity of compound 11 by the spectrophotometric method of the free radical DPPH• (2,2-diphenyl-1-picrylhydrazyl). Indeed, antioxidants react with DPPH^• (purple), a stable free radical which is reduced to DPPH-H (yellow), and in consequence, the absorbance is decreased from the DPPH^• radical to the DPPH-H form. The degree of discoloration indicates the scavenging potential of the antioxidant compounds in terms of hydrogen donating ability (Popovici et al. Revue de génie industriel 2009, 4, 25-39).
The tested compounds were: Trolox ((±)-6-hydroxy-2,5,7,8-tetramethylchromane-2-carboxylic acid, Sigma Aldrich), as reference, and compound 11.
A stock solution of DPPH• was prepared at 200 μmol/mL in methanol and diluted in methanol in order to have a final concentration of around 150 μmol/mL to obtain a DO close to 0.9 in a plate of 96 wells. The antioxidant stock solutions were prepared at 1 mg/mL in methanol and the tested solutions were prepared from these antioxidant stock solutions as described in Table 7 below.
50 μL of each solution of antioxidant was added to the wells. Then, 200 μL of DPPH^• was added to each well.
The blank was prepared with only 250 μl of methanol and the negative control was prepared with 200 μL DPPH• and 50 μL of methanol.
The analysis was started immediately after the addition of DPPH• lasting for 2 hours (readings every 20 seconds). The absorbance was read at 515 nm. Each experiment was performed three times and had shown that the absorbance decreases while the concentration of antioxidant increased.
The activity of DPPH• is a percentage calculated as the ratio of A/An×100%.
The EC50 is expressed as a molar ratio of antioxidant (compound 11)/DPPH• (Popovici et al. Revue de génie industriel 2009, 4, 25-39). The EC50 was determined from the graph representing the percentage of DPPH• in function of the above mentioned molar ratio (moles of compound 11/moles of DPPH•).
The antioxidant activity of compound 11 was compared to that of Trolox used as a reference (considered as 100%).

The next series concerns human tyrosinase. Description: HumanLike Tyrosinase Assay kit (Feldan), L-Tyrosine to dopachrome, OD at 490 nm. The series is classed as biochemical. The note with it: for OD at 490 nm: 1.12 mM. How it is done:
The efficacy of compound 16 was evaluated by the inhibition of human tyrosinase in tubo and compared to the compound 11.
The assay was performed with a ready-to-use kit from Feldan Inc (Canada): the HumanLike Tyrosinase Assay kit (ref A021-a-001Kit).
The protocol was performed as described in the instructions for use of the manufacturer. Briefly, this kit is intended for the determination of human tyrosinase activity in presence of different inhibitors. The kit measures the conversion of L-Tyrosine into a dopachrome complex absorbing at 490 nm. The time course of the assay is 20 minutes, after which the results are analyzed and compared.
The compounds 11 and 16 have been tested at a final concentration of 1.12 mM.
The measured absorbances at 490 nm are reported in the table 5 and plotted in function of time in the FIG. 1.
Moreover for each compound the efficacy as tyrosinase inhibitor was calculated using the following formula: […]

For `Oc1ccc(OC2CCCCO2)cc1` (stereo not shown) [Deoxyarbutin, reference compound], the “% Hydroquinone released” value in series [1] (Ringer's solution pH 5.5 at 70° C., 24 H) turned out to be 11.83%; in series [1] (Ringer's solution pH 8.5 at 70° C., 24 H), 88.76%; in series [1] (Synthetic perspiration at RT, 48 H) it was 128.61%; in series [1] (Water at room temperature, 14 Days) it was 4.20%. For the same compound, the “Flux, mean (n = 3)” value in series [2] stood at 3.98 μg/h/cm^2. The “Calculated IC50 Mean” value in series [3] (mean of 4 tests) was 53 µg/mL. In addition, the half-maximal inhibitory concentration (IC50) in series [3] (read-out: IC50) worked out at 272 µM. Further, in series [3] (time 20 min), the “Calculated IC50 Test #1” value was 26 µg/mL. Besides, the “Calculated IC50 Test #2” value in series [3] (time 20 min) was 45 µg/mL. Further, the “Calculated IC50 Test #3” value in series [3] (time 20 min) was 80 µg/mL. Also, the “Calculated IC50 Test #4” value in series [3] (time 20 min) was 60 µg/mL.
On to `Cc1c(C)c2c(c(C)c1O)CCC(C)(C(=O)O)O2` (racemic) [Trolox, (±)-6-hydroxy-2,5,7,8-tetramethylchromane-2-carboxylic acid, reference compound], for which, in series [4], the “EC50 (Ratio antioxidant/DPPH•) Mean” value was determined as 0.240.
As to `Oc1ccc(OC2CC(O)CCC2(F)F)cc1` (stereo not shown) [Compound 16], the “OD at 490 nm” value with human tyrosinase (time 0 min) is given as 0.0000; in the series on human tyrosinase (time 1 min), 0.0105; in the series on human tyrosinase (time 2 min) it was 0.0185; with human tyrosinase (time 3 min) it was 0.0285; in the series on human tyrosinase (time 4 min) it was 0.0385; in the series with human tyrosinase (time 5 min) it was 0.0505. Also, the “OD at 490 nm” value with human tyrosinase (time 6 min) was found to be 0.0605; in the series on human tyrosinase (time 7 min), 0.0720; in the series on human tyrosinase (time 8 min) it was 0.0815; in the series with human tyrosinase (time 9 min) it was 0.0925; in the series on human tyrosinase (time 10 min) it was 0.1025; in the series on human tyrosinase (time 11 min), 0.1125. Besides, the “OD at 490 nm” value with human tyrosinase (time 12 min) was found to be 0.1225; with human tyrosinase (time 13 min), 0.1330; with human tyrosinase (time 14 min), 0.1435; in the series on human tyrosinase (time 15 min), 0.1545; with human tyrosinase (time 16 min), 0.1650; in the series on human tyrosinase (time 17 min), 0.1765. Also, the “OD at 490 nm” value in the series on human tyrosinase (time 18 min) turned out to be 0.1885; with human tyrosinase (time 19 min) it was 0.2000; in the series on human tyrosinase (time 20 min), 0.2115. Further, in the series with human tyrosinase (Compound at 1.12 mM, T = 20 min), the “Inhibitor efficacy (%)” value came to 13.7%.
